Experiments:
Format in all cases: functional, cell-based
MCF7 = experiment: Antitumor activity against human MCF7 cells assessed as growth inhibition measured after 48 hrs by MTT assay; conditions: MCF7, 48 h
HeLa = experiment: Antitumor activity against human HeLa cells assessed as growth inhibition measured after 48 hrs by MTT assay
HepG2 = experiment: Antitumor activity against human HepG2 cells assessed as growth inhibition measured after 48 hrs by MTT assay; conditions: HepG2, 48 h

Structure (SMILES)	IC50 (MCF7)	IC50 (HeLa)	IC50 (HepG2)
Oc1ccc(/C=C/c2cc(O)cc(O)c2)cc1 [RESVERATROL]	> 100 µM	58.9 µM	> 100 µM
COc1cc([C@@H]2c3cc4c(cc3[C@@H](O[C@@H]3O[C@@H]5CO[C@@H](C)O[C@H]5[C@H](O)[C@H]3O)[C@H]3COC(=O)[C@H]23)OCO4)cc(OC)c1O [ETOPOSIDE]	59.8 µM	8.32 µM	9.14 µM
O=c1[nH]cc(F)c(=O)[nH]1 [FLUOROURACIL]	> 100 µM	14.8 µM	> 100 µM
C[C@@H]1O[C@@H](O[C@H]2[C@H](OC[C@@]34CC[C@]5(C)C(=CC[C@@H]6[C@@]7(C)CC[C@H](O[C@@H]8O[C@H](CO[C@@H]9O[C@H](CO)[C@@H](O)[C@H](O)[C@H]9O)[C@@H](O)[C@H](O)[C@H]8O)C(C)(C)[C@@H]7CC[C@]65C)[C@@H]3CC(C)(C)[C@@H](O)[C@@H]4O)O[C@H](CO[C@@H]3O[C@H](CO)[C@@H](O)[C@H](O)[C@H]3O)[C@@H](O)[C@@H]2O)[C@H](O)[C@H](O)[C@H]1O [XANIFOLIA O54]	7.29 µM	3.98 µM	7.25 µM
C/C=C(/C)C(=O)O[C@H]1[C@H](O[C@H]2CC[C@]3(C)[C@H]4CC=C5[C@@H]6CC(C)(C)[C@@H](O)[C@H](O)[C@]6(CO[C@@H]6O[C@H](CO[C@@H]7O[C@H](CO)[C@@H](O)[C@H](O)[C@H]7O)[C@@H](O)[C@H](O)[C@H]6O[C@@H]6O[C@@H](C)[C@H](O)[C@@H](O)[C@H]6O)CC[C@@]5(C)[C@]4(C)CC[C@H]3C2(C)C)O[C@H](CO[C@@H]2O[C@H](CO)[C@@H](O)[C@H](O)[C@H]2O)[C@@H](O)[C@@H]1O	> 100 µM	> 100 µM	> 100 µM
C/C=C(/C)C(=O)O[C@H]1[C@H](OC(=O)/C(C)=C\C)[C@]2(CO)[C@H](O)[C@H](O)[C@]3(C)C(=CC[C@@H]4[C@@]5(C)CC[C@H](O[C@@H]6O[C@H](CO[C@@H]7O[C@H](CO)[C@@H](O)[C@H](O)[C@H]7O)[C@@H](O)[C@H](O)[C@H]6O[C@@H]6O[C@@H](CO)[C@H](O)[C@H]6O)C(C)(C)[C@@H]5CC[C@]43C)[C@@H]2CC1(C)C	9.62 µM	7.56 µM	9.21 µM
C[C@@H]1O[C@@H](O[C@H]2[C@H](OC[C@@]34CC[C@]5(C)C(=CC[C@@H]6[C@@]7(C)CC[C@H](O[C@@H]8O[C@H](CO[C@@H]9O[C@H](CO)[C@@H](O)[C@H](O)[C@H]9O)[C@@H](O)[C@H](O)[C@H]8O)C(C)(C)[C@@H]7CC[C@]65C)[C@@H]3CC(C)(C)[C@@H](O)[C@@H]4O)O[C@H](CO)[C@@H](O)[C@@H]2O)[C@H](O)[C@H](O)[C@H]1O	25.4 µM	18.8 µM	31.5 µM
CC(=O)O[C@H]1C(=O)[C@@]2(C)[C@H]([C@H](OC(=O)c3ccccc3)[C@]3(O)C[C@H](OC(=O)[C@H](O)[C@@H](NC(=O)c4ccccc4)c4ccccc4)C(C)=C1C3(C)C)[C@]1(OC(C)=O)CO[C@@H]1C[C@@H]2O [PACLITAXEL]	77.2 µM		61.8 µM
C/C=C(/C)C(=O)O[C@@H]1[C@@H](O)[C@H](O[C@H]2CC[C@]3(C)[C@H]4CC=C5[C@@H]6CC(C)(C)[C@@H](O)[C@H](O)[C@]6(CO[C@@H]6O[C@H](CO[C@@H]7O[C@H](CO)[C@@H](O)[C@H](O)[C@H]7O)[C@@H](O)[C@H](O)[C@H]6O[C@@H]6O[C@@H](C)[C@H](O)[C@@H](O)[C@H]6O)CC[C@@]5(C)[C@]4(C)CC[C@H]3C2(C)C)O[C@H](CO[C@@H]2O[C@H](CO)[C@@H](O)[C@H](O)[C@H]2O)[C@H]1O	> 100 µM	> 100 µM	> 100 µM
C/C=C(/C)C(=O)O[C@H]1[C@H](OC(=O)/C(C)=C\C)[C@]2(CO)[C@H](O)[C@H](O)[C@]3(C)C(=CC[C@@H]4[C@@]5(C)CC[C@H](O[C@@H]6O[C@H](C(=O)OC)[C@@H](O)[C@H](O)[C@H]6O[C@@H]6O[C@H](CO)[C@@H](O)[C@H](O)[C@H]6O)C(C)(C)[C@@H]5CC[C@]43C)[C@@H]2CC1(C)C	> 100 µM	81.6 µM	43.7 µM

Reference: ChEMBL document CHEMBL2311427, “Bioactive barrigenol type triterpenoids from the leaves of Xanthoceras sorbifolia Bunge” (Eur J Med Chem, 2013)
